Measurements published in patent US11993599B2, “Therapeutic compounds” (Genentech, Inc., priority 2021, dated 2024).

Key:
BRM = BRM (Homo sapiens, UniProt P51531); test: Immunofluorescence assay for BRM degradation in SW1573 cells; assay type: cell-based; parameters: treated overnight at 4° C. with either BRM primary antibody (Cell signaling Cat #11966) or BRG primary antibody; endogenous in cells; host or cells: SW1573; conditions: 20 hours incubation; for DC50: immunofluorescence mean nuclear signal, read-out: BRM IF Degradation IC50; for BRM IF Degradation Sinf (%): normalized to a known degrader control
BRM, sequence (P51531 whole entry): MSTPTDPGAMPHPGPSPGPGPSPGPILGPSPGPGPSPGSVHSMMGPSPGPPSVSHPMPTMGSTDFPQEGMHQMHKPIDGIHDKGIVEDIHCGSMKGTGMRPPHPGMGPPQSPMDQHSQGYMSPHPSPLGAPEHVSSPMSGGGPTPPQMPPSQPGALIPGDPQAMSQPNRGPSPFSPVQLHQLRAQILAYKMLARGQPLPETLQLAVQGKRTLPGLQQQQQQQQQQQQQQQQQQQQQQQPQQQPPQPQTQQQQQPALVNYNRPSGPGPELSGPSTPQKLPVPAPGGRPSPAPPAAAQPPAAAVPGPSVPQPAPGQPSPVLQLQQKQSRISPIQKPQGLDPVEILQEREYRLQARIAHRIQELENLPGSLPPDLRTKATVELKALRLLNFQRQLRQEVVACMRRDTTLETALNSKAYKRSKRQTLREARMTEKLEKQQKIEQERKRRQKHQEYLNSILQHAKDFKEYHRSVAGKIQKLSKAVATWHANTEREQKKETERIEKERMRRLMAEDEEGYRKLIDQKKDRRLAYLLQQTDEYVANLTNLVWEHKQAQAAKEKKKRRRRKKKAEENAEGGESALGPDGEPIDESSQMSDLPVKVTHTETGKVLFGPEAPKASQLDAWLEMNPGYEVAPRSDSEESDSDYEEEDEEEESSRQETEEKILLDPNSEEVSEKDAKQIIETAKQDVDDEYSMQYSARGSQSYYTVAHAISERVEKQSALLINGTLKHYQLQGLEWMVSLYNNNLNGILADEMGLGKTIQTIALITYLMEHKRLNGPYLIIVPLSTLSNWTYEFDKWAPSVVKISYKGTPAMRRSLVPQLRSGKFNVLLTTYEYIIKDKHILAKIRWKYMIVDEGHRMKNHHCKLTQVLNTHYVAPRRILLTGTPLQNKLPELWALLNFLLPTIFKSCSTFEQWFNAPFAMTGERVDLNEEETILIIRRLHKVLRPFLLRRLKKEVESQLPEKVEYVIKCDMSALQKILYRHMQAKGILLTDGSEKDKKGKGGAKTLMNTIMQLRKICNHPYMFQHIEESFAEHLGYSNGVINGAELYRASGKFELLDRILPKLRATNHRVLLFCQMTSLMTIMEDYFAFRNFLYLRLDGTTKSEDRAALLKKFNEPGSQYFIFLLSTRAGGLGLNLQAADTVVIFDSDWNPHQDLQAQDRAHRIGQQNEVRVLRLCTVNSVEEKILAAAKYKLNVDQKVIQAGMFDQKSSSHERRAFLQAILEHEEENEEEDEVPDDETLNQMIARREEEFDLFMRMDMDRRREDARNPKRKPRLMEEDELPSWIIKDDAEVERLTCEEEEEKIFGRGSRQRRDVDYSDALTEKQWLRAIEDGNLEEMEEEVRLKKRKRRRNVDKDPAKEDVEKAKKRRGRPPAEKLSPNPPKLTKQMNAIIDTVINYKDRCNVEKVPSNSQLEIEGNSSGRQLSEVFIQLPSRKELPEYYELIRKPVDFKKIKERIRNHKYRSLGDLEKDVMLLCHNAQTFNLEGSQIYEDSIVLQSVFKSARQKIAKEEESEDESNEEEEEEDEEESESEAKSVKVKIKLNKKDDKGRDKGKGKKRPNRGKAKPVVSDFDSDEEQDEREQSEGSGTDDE
Method: (§1) Example B-2: Immunofluorescence Assay for BRM and BRG1 Degraders
(§2) SW1573 cells were seeded at 3000 cells/well in 384 well plates. The next day, compounds were added using an Echo dispenser. After 20 hours of incubation with compound, cells were fixed with 4% formaldehyde then permeabilized with 0.2% Triton X-100 and blocked with 10% FCS. Fixed and permeabilized cells were treated overnight at 4° C. with either BRM primary antibody (Cell signaling Cat #11966) or BRG primary antibody (Abcam, ab 110641). Finally, cells were treated with fluorescently labeled secondary antibodies for 1 hr (Donkey anti-Rabbit IgG AF488, Life Technologies, A21206) and Hoechst nuclear stain (#H3569) was added for 30 minutes. Cells were washed with PBS in between each step and before imaging on an Opera Phenix microscope (Perkin Elmer). Harmony software (Perking Elmer) was used to quantify the mean nuclear signaling intensity of BRM or BRG signaling per cell in each well. Dose responses were determined from the concentration dependent response of mean nuclear signal intensity with data normalized to a known degrader control. Dose response curves were fit to a floating maximum to allow for calculation of the Dmax.
(§3) Note that, in Table 5, the “Compound Number” corresponds to that used in Table 1. In Table 5, for BRM and BRG1 IF degradation IC50 (μM): A indicates <0.010 μM, B indicates 0.010-0.10 μM, and C indicates >0.10 μM; and for BRM and BRG1 IF degradation Sinf % D indicates 0-−30%, E indicates −30%-−70%, F indicates −71%-−120% and ND indicates the value was not determined.

BRG1 = biological target: T1, BRG1 (Homo sapiens, UniProt P51532); test: Immunofluorescence assay for BRG1 degradation in SW1573 cells; assay type: cell-based; conditions: 20 hours incubation; for DC50: immunofluorescence mean nuclear signal, read-out: BRG1 IF Degradation IC50; for Dmax: SW1573, 20 h, read-out: BRG1 IF Degradation Sinf (%); for Dmax / BRG1 IF Degradation Sinf (%): normalized to a known degrader control
T1 construct: either BRM primary antibody (Cell signaling Cat #11966) or BRG primary antibody (Abcam, ab 110641); endogenous in cells; host or cells: SW1573
T1 sequence (P51532 whole entry): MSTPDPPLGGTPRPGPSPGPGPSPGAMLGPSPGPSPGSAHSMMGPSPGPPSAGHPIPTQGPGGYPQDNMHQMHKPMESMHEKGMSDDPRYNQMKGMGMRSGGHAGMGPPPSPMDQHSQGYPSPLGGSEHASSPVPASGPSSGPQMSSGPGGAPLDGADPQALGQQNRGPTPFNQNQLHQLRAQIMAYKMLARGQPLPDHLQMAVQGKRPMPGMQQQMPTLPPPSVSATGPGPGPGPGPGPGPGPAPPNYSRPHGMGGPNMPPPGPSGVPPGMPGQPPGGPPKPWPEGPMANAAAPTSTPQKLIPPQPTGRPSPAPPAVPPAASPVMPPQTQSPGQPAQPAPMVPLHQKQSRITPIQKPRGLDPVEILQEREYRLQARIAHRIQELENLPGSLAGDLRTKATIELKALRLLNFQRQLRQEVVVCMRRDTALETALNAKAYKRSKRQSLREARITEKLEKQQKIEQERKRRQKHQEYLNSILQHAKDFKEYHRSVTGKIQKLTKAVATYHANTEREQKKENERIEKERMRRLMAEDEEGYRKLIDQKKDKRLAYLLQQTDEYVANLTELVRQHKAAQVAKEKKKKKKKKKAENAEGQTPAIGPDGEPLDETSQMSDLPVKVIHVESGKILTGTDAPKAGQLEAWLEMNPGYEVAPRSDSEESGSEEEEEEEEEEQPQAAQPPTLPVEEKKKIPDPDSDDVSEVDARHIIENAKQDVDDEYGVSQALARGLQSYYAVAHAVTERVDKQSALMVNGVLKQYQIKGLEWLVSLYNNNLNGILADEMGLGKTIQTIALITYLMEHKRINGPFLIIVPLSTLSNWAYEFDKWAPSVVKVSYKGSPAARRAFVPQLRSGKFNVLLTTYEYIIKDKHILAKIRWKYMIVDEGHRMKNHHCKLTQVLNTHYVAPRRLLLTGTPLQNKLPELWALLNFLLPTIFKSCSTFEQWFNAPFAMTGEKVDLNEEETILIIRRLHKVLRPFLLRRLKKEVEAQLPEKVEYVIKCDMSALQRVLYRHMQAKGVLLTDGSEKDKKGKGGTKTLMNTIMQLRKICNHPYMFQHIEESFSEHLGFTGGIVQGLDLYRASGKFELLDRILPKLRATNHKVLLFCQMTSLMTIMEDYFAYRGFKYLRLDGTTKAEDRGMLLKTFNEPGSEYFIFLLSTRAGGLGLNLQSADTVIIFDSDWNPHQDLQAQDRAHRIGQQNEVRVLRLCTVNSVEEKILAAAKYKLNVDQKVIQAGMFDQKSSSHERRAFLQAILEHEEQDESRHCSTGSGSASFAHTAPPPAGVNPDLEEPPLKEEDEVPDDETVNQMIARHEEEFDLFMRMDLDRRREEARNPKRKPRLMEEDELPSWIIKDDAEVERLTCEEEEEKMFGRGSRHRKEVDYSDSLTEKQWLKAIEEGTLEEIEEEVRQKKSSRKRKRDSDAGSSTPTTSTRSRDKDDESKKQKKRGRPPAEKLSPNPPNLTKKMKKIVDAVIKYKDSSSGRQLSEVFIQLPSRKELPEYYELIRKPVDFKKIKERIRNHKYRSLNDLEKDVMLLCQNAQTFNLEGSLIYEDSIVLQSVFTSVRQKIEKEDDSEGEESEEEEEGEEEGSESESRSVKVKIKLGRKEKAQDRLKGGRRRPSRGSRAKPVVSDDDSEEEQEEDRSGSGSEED
Method: as §1, §2, §3

| SMILES | DC50 (BRM) [nM] | BRM IF Degradation Sinf (%) (BRM) | DC50 (BRG1) [nM] | Dmax (BRG1) [%] | BRG1 IF Degradation Sinf (%) (BRG1) |
| --- | --- | --- | --- | --- | --- |
| CNC(=O)[C@H]1CCN(CC#Cc2cc(N3C4CCC3CN(c3cc(-c5ccccc5O)nnc3N)C4)ccn2)C1 [Compound 122, (3S)-1-[3-[4-[3-[3-amino-6-(2-hydroxyphenyl)pyridazin-4-yl]-3,8-diazabicyclo[3.2.1]octan-8-yl]-2-pyridyl]prop-2-ynyl]-N-methyl-pyrrolidine-3-carboxamide] | 10 to 100 | F (F indicates −71%-−120%) | 10 to 100 | 30 to 70 |  |
| Nc1nnc(-c2ccccc2O)cc1N1CC2CCC(C1)N2c1ccnc(C#CCN2CC3CC2(CO)C3)c1 [Compound 116, 2-[6-amino-5-[8-[2-[3-[1-(hydroxymethyl)-2-azabicyclo[2.1.1]hexan-2-yl]prop-1-ynyl]-4-pyridyl]-3,8-diazabicyclo[3.2.1]octan-3-yl]pyridazin-3-yl]phenol] | 10 to 100 | E (E indicates −30%-−70%) | < 10 | 0 to 30 |  |
| Nc1nnc(-c2ccccc2O)cc1N1CC2CCC(C1)N2c1ccnc(C#CCN2CCC[C@@H]3OCC[C@@H]32)c1 [Compound 90, 2-[5-[8-[2-[3-[(3aS,7aS)-3,3a,5,6,7,7a-hexahydro-2H-furo[3,2-b]pyridin-4-yl]prop-1-ynyl]-4-pyridyl]-3,8-diazabicyclo[3.2.1]octan-3-yl]-6-amino-pyridazin-3-yl]phenol] | 10 to 100 | E (E indicates −30%-−70%) | 10 to 100 | 0 to 30 |  |
| Nc1nnc(-c2ccccc2O)cc1N1CC2CCC(C1)N2c1ccnc(C#CCN2CC3(CC(O)C3)C2)c1 [Compound 185, 2-[3-[4-[3-[3-amino-6-(2-hydroxyphenyl)pyridazin-4-yl]-3,8-diazabicyclo[3.2.1]octan-8-yl]-2-pyridyl]prop-2-ynyl]-2-azaspiro[3.3]heptan-6-ol] | > 100 | F (F indicates −71%-−120%) | 10 to 100 | 30 to 70 |  |
| CC1CCN(CC#Cc2cc(N3C4CCC3CN(c3cc(-c5ccccc5O)nnc3N)C4)ccn2)CCC1(C)O (centres unmarked) [Compound 239, 1-[3-[4-[3-[3-amino-6-(2-hydroxyphenyl)pyridazin-4-yl]-3,8-diazabicyclo[3.2.1]octan-8-yl]-2-pyridyl]prop-2-ynyl]-4,5-dimethyl-azepan-4-ol] | < 10 | E (E indicates −30%-−70%) | < 10 | 30 to 70 |  |
| Nc1nnc(-c2ccccc2O)cc1N1CC2CCC(C1)N2c1ccnc(C#CCN2CCCCCC2CO)c1 (centres unmarked) [Compound 216, 2-[6-amino-5-[8-[2-[3-[2-(hydroxymethyl)azepan-1-yl]prop-1-ynyl]-4-pyridyl]-3,8-diazabicyclo[3.2.1]octan-3-yl]pyridazin-3-yl]phenol] | < 10 | F (F indicates −71%-−120%) | < 10 | 71 to 120 |  |
| Nc1nnc(-c2ccccc2O)cc1N1CC2CCC(C1)N2c1ccnc(C#CCN2CCCCCC2)c1 [Compound 58, 2-(6-amino-5-(8-(2-(3-(azepan-1-yl)prop-1-yn-1-yl)pyridin-4-yl)-3,8-diazabicyclo[3.2.1]octan-3-yl)pyridazin-3-yl)phenol] | < 10 | F (F indicates −71%-−120%) | < 10 | 30 to 70 |  |
| Oc1ccccc1-c1cc2c(nn1)NC[C@@H]1CN(c3ccnc(C#CCN4CCCCCC4)c3)CCN21 (single isomer, unassigned) [Compound 253] | < 10 | F (F indicates −71%-−120%) | < 10 | 71 to 120 |  |
| Nc1nnc(-c2ccccc2O)cc1N1CC2CCC(C1)N2c1ccnc(C#CCN2CC3CCOC3C2)c1 (centres unmarked) [Compound 81, 2-[5-[8-[2-[3-(2,3,3a,4,6,6a-hexahydrofuro[2,3-c]pyrrol-5-yl)prop-1-ynyl]-4-pyridyl]-3,8-diazabicyclo[3.2.1]octan-3-yl]-6-amino-pyridazin-3-yl]phenol] | < 10 | E (E indicates −30%-−70%) | < 10 | 30 to 70 |  |
| CC1CN(CC#Cc2cc(N3C4CCC3CN(c3cc(-c5ccccc5O)nnc3N)C4)ccn2)CCN1 (centres unmarked) [Compound 40, 2-[6-amino-5-[8-[2-[3-(3-methylpiperazin-1-yl)prop-1-ynyl]-4-pyridyl]-3,8-diazabicyclo[3.2.1]octan-3-yl]pyridazin-3-yl]phenol] | > 100 | E (E indicates −30%-−70%) | > 100 |  |  |
| CC1CCCCCN1CC#Cc1cc(N2C3CCC2CN(c2cc(-c4ccccc4O)nnc2N)C3)ccn1 (centres unmarked) [Compound 201, 2-[6-amino-5-[8-[2-[3-(2-methylazepan-1-yl)prop-1-ynyl]-4-pyridyl]-3,8-diazabicyclo[3.2.1]octan-3-yl]pyridazin-3-yl]phenol] | < 10 | F (F indicates −71%-−120%) | < 10 | 30 to 70 |  |
| Nc1nnc(-c2ccccc2O)cc1N1CC2CCC(C1)N2c1ccnc(C#CCN2CCC23CCOC3)c1 (centres unmarked) [Compound 69, 2-[6-amino-5-[8-[2-[3-(7-oxa-1-azaspiro[3.4]octan-1-yl)prop-1-ynyl]-4-pyridyl]-3,8-diazabicyclo[3.2.1]octan-3-yl]pyridazin-3-yl]phenol] | < 10 | F (F indicates −71%-−120%) | < 10 |  | E (E indicates −30%-−70%) |
| Nc1nnc(-c2ccccc2O)cc1N1CC2CCC(C1)N2c1ccnc(C#CCN2CC(C(F)(F)F)C2)c1 [Compound 232, 2-[6-amino-5-[8-[2-[3-[3-(trifluoromethyl)azetidin-1-yl]prop-1-ynyl]-4-pyridyl]-3,8-diazabicyclo[3.2.1]octan-3-yl]pyridazin-3-yl]phenol] | 10 to 100 | E (E indicates −30%-−70%) | < 10 | 30 to 70 |  |
| COC(=O)C1CN(CC#Cc2cc(N3C4CCC3CN(c3cc(-c5ccccc5O)nnc3N)C4)ccn2)C1 [Compound 225] | 10 to 100 | E (E indicates −30%-−70%) | < 10 | 0 to 30 |  |
| Nc1nnc(-c2ccccc2O)cc1N1CC2CCC(C1)N2c1ccnc(C#CCN2CCCCC(CO)C2)c1 (centres unmarked) [Compound 214, 2-[6-amino-5-[8-[2-[3-[3-(hydroxymethyl)azepan-1-yl]prop-1-ynyl]-4-pyridyl]-3,8-diazabicyclo[3.2.1]octan-3-yl]pyridazin-3-yl]phenol] | < 10 | F (F indicates −71%-−120%) | < 10 | 30 to 70 |  |
| COCC1(O)CCCN(CC#Cc2cc(N3C4CCC3CN(c3cc(-c5ccccc5O)nnc3N)C4)ccn2)CC1 (centres unmarked) [Compound 207, 1-[3-[4-[3-[3-amino-6-(2-hydroxyphenyl)pyridazin-4-yl]-3,8-diazabicyclo[3.2.1]octan-8-yl]-2-pyridyl]prop-2-ynyl]-4-(methoxymethyl)azepan-4-ol] | 10 to 100 | E (E indicates −30%-−70%) | > 100 | 71 to 120 |  |
| Nc1nnc(-c2ccccc2O)cc1N1CC2CCC(C1)N2c1ccnc(C#CCN2CC3CCCC(C2)O3)c1 [Compound 101, 2-[6-amino-5-[8-[2-[3-(9-oxa-3-azabicyclo[3.3.1]nonan-3-yl)prop-l-ynyl]-4-pyridyl]-3,8-diazabicyclo[3.2.1]octan-3-yl]pyridazin-3-yl]phenol] | 10 to 100 | E (E indicates −30%-−70%) | > 100 |  |  |
| Nc1nnc(-c2ccccc2O)cc1N1CC2CCC(C1)N2c1ccnc(C#CCN2CCC23CCOC3)c1 (centres unmarked) [Compound 167, 2-[6-amino-5-[8-[2-[3-(7-oxa-1-azaspiro[3.4]octan-1-yl)prop-1-ynyl]-4-pyridyl]-3,8-diazabicyclo[3.2.1]octan-3-yl]pyridazin-3-yl]phenol] | < 10 | F (F indicates −71%-−120%) | < 10 |  | F (F indicates −71%-−120%) |
| Nc1nnc(-c2ccccc2O)cc1N1CC2CCC(C1)N2c1ccnc(C#CCN2CCC(F)CC2)c1 [Compound 131, 2-[6-amino-5-[8-[2-[3-(4-fluoro-1-piperidyl)prop-1-ynyl]-4-pyridyl]-3,8-diazabicyclo[3.2.1]octan-3-yl]pyridazin-3-yl]phenol] | < 10 | E (E indicates −30%-−70%) | < 10 | 0 to 30 |  |
